What was measured:
[1] = target: Tyrosinase (Mus musculus) (UniProt P11344); assay: Inhibition of tyrosinase in Melan-a cells
[2] = DPPH radical scavenging activity after 30 mins; format: functional
[3] = Cytotoxicity againt Melan-a cells by MTT assay; format: cell-based; conditions: Mus musculus
[4] = Inhibition of melanin formation in Melan-a cells after 5 days; format: functional, cell-based; conditions: 120 h

Chain of Tyrosinase (Mus musculus) (P11344 whole entry, looked up): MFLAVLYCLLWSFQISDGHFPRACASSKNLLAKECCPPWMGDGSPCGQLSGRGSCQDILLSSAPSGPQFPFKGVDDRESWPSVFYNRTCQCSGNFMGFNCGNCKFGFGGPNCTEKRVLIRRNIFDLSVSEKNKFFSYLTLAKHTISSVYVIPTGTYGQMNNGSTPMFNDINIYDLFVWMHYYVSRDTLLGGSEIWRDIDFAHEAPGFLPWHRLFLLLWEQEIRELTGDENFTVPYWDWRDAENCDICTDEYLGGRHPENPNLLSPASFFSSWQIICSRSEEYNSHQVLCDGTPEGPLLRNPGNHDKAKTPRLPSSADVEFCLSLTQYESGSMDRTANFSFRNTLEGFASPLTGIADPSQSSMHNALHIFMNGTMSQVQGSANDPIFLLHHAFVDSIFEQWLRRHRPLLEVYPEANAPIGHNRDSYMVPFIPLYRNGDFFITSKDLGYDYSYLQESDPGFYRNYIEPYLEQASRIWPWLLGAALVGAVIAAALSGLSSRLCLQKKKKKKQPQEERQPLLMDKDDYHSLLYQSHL

IC50 [1] [µM] | IC50 [2] [µM] | IC50 [4] [µM] | Compound | IC50 [3] [µM]
4.93 | 7.52 | – | O=C(OCCc1ccc(O)cc1)c1cc(O)c(O)c(O)c1 | > 10
15.2 | 7.78 | 8.94 | O=C(OCCc1cccc(O)c1)c1cc(O)c(O)c(O)c1 | > 50
14.5 | 8.31 | 13.7 | O=C(OCCc1ccccc1O)c1cc(O)c(O)c(O)c1 | > 50
– | 9.89 | – | Cc1c(C)c2c(c(C)c1O)CC[C@@](C)(CCCC(C)CCCC(C)CCCC(C)C)O2 (single isomer, unassigned) [ALPHA-TOCOPHEROL] | –
– | – | 118 | OC[C@H]1O[C@@H](Oc2ccc(O)cc2)[C@H](O)[C@@H](O)[C@@H]1O [ARBUTIN] | > 1500
– | 13.6 | – | O=C1O[C@H]([C@@H](O)CO)C(O)=C1O [ASCORBIC ACID] | –

Source: ChEMBL document CHEMBL1139787, “Synthetic tyrosyl gallate derivatives as potent melanin formation inhibitors” (Bioorg Med Chem Lett, 2007)
